Experimental data taken from publication PMC9952520, “Anti-Biofilm Effects of Rationally Designed Peptides against Planktonic Cells and Pre-Formed Biofilm of Pseudomonas aeruginosa” (Antibiotics, 2023).
Ends that are not written are not given here.

Experiments:
[1] = system: Drug-Sensitive P. aeruginosa (ATCC 27853); assay: microbe, parasite or virus in culture; assay type: cell-based, Pseudomonas aeruginosa; conditions: microdilution, 10 mM sodium phosphate pH 7.2 + 20% MH broth, 24 h at 37 °C, turbidity OD600, triplicate
Procedure: (§1) Pseudomonas aeruginosa ATCC 27853 (drug-sensitive strain) was obtained from the American Type Culture Collection and drug-resistant P. aeruginosa (DRPa)-3904, 4830, 4891, 4007, and 5018 were isolated from patients with otitis media in a hospital. DRPa strains were obtained from GC Lab (Yongin-Si, Gyeonggi-do, Korea) for identification and antibiotic susceptibility testing. All strains were grown in a Mueller–Hinton (MH) broth containing 0.5% NaCl under an aerobic condition at 37 °C.
(§2) Pregrown bacteria were suspended in 10 mM sodium phosphate (SP, pH 7.2) supplemented with 20% MH broth. Evaluation of antibacterial effects in variable ionic strengths was performed with the following buffers: 10 mM HEPES, 10 mM NaCl, pH 7.4 + 10% MH (buffer I), 10 mM HEPES, 150 mM NaCl, pH 7.4 + 10% MH (buffer II), 10 mM HEPES, 5 mM MgCl2, pH 7.4 + 10% MH (buffer III), and 10 mM HEPES, 150 mM NaCl, 5 mM MgCl2, pH 7.4 + 10% MH (buffer IV). Fifty µL of the cell suspension (1 × 10^6 colony forming unit (CFU)/mL) was added to fifty µL of two-fold serially diluted peptide solutions and antibiotics (0.125–256 µM), followed by incubation for 24 h at 37 °C. The positive growth control was bacterial suspension without peptides and antibiotics and the negative control was only medium. MICs were evaluated by measuring the turbidity of cell solutions at OD600 and were defined as the lowest concentration of peptide or antibiotics that inhibited visible bacterial growth. The assays were performed in triplicate.

[2] = system: planktonic DRPa 4007; assay: Growth inhibition of planktonic cells in BHI; assay type: cell-based, Pseudomonas aeruginosa; conditions: BHI broth, 24 h at 37 °C, OD600
Procedure: (§3) To investigate the growth inhibition of peptides and antibiotics against planktonic P. aeruginosa cells, a microdilution assay was applied. […] After 24 h incubation at 37 °C with agitation, the growth inhibition was calculated by the absorbance measurement of bacterial turbidity at 600 nm using a Microplate Reader (SpectraMax M5, Molecular Devices, Sunnyvale, CA, USA). The assay was performed in triplicate. The percentage of […] was calculated as follows:Growth inhibition (%) = 100 − ((OD600 in sample treatment − OD600 in untreated bacteria)/(OD600 in untreated sample − OD600 in untreated bacteria) × 100) Sample treatment: adding peptides or antibiotics in bacterial suspensions; untreated bacteria: culture medium without bacteria and samples; untreated sample: bacterial suspension without samples.

[3] = system: planktonic P. aeruginosa ATCC 27853; assay: Growth inhibition of planktonic cells in BHI; assay type: cell-based, Pseudomonas aeruginosa; conditions: BHI broth, 24 h at 37 °C, OD600
Procedure: as §3

[4] = system: Drug-Resistant P. aeruginosa (DRPa) 3904; assay: microbe, parasite or virus in culture; assay type: cell-based, Pseudomonas aeruginosa; conditions: microdilution, 10 mM sodium phosphate pH 7.2 + 20% MH broth, 24 h at 37 °C, OD600, triplicate
Procedure: as §1, §2

[5] = system: Drug-Resistant P. aeruginosa (DRPa) 4007; assay: microbe, parasite or virus in culture; assay type: cell-based, Pseudomonas aeruginosa; conditions: microdilution, 10 mM sodium phosphate pH 7.2 + 20% MH broth, 24 h at 37 °C, OD600, triplicate
Procedure: as §1, §2

[6] = system: Drug-Resistant P. aeruginosa (DRPa) 4830; assay: microbe, parasite or virus in culture; assay type: cell-based, Pseudomonas aeruginosa; conditions: microdilution, 10 mM sodium phosphate pH 7.2 + 20% MH broth, 24 h at 37 °C, OD600, triplicate
Procedure: as §1, §2

[7] = system: Drug-Resistant P. aeruginosa (DRPa) 4891; assay: microbe, parasite or virus in culture; assay type: cell-based, Pseudomonas aeruginosa; conditions: microdilution, 10 mM sodium phosphate pH 7.2 + 20% MH broth, 24 h at 37 °C, OD600, triplicate
Procedure: as §1, §2

[8] = system: Drug-Resistant P. aeruginosa (DRPa) 5018; assay: microbe, parasite or virus in culture; assay type: cell-based, Pseudomonas aeruginosa; conditions: microdilution, 10 mM sodium phosphate pH 7.2 + 20% MH broth, 24 h at 37 °C, OD600, triplicate
Procedure: as §1, §2

[9] = system: P. aeruginosa ATCC 27853 biofilm; assay: Inhibition of biofilm formation, crystal violet staining; assay type: cell-based, Pseudomonas aeruginosa; conditions: BHI + 2% sucrose, 24 h at 37 °C, crystal violet OD570
Procedure: (§4) Sucrose was added to enhance bacterial biofilm formation. Unattached bacteria were removed by washing with SP buffer and the remaining biofilm was fixed with methanol for 15 min. After air-drying for 30 min at room temperature, the plate was stained with 0.1% crystal violet (CV) for 5 min, followed by carefully washing with water and adding 95% ethanol to each well. The absorbance of the plate at 570 nm was measured using a Microplate Reader. The experiment was performed in triplicate and the percentage of biofilm inhibition was calculated as follows:Biofilm inhibition (%) = 100 − ((OD570 in sample treatment − OD570 in untreated bacteria)/(OD570 in untreated sample − OD570 in untreated bacteria) × 100) Sample treatment: adding peptides or antibiotics in bacterial suspensions; untreated bacteria: culture medium without bacteria and samples; untreated sample: bacterial suspension without samples.

[10] = system: DRPa 4007 biofilm; assay: as above; assay type: cell-based; conditions: Pseudomonas aeruginosa, BHI + 2% sucrose, 24 h at 37 °C, crystal violet OD570, triplicate
Procedure: as §4

[11] = system: P. aeruginosa DRPa 4007 biofilm; assay: SEM analysis of biofilm on plastic coverslips; assay type: cell-based, Pseudomonas aeruginosa; conditions: peptides 64 µM, ciprofloxacin 256 µM, 24 h on 48 h biofilm
Procedure: Figure 6 Image analysis of P. aeruginosa DRPa 4007 using scanning electron microscopy (SEM).
DRPa 4007 biofilms were formed on the plastic coverslips (12 mm dimension, SPL life science, Pocheon-si, Korea) for 48 h in BHI broth containing 2% (w/v) sucrose (1 × 10^8 CFU/mL) in a 24-well plate. […] The coverslips were rinsed using SP buffer and prefixed in 50 mM HEPES buffer (pH 8.0) containing 5% (v/v) glutaraldehyde for 2 h. After washing with SP buffer, they were dehydrated using the OTTIX shaper (Diapath S.p.A, Bergamo, Italy) and chemical-dried using hexamethyldisilazane. The coverslips coated with gold were observed under a field emission scanning electron microscopy (JSM-7100F, JEOL Ltd., Tokyo, Japan).

[12] = system: Biofilm EPS of P. aeruginosa DRPa 4007; assay: Reduction of biofilm EPS components, fluorescent dyes and fluorescence microscopy; assay type: cell-based, Pseudomonas aeruginosa; conditions: 64 µM, 24 h incubation; FITC-ConA, Nile red, DAPI, SYPRO red
Procedure: Figure 4 Eliminative action of peptides in biofilm extracellular polymeric substances (EPS). Biofilm EPS of P. aeruginosa DRPa 4007 in the absence or presence of peptides (64 µM) was stained by FITC-ConA for carbohydrates, Nile red for lipids, DAPI for nucleic acids, and SYPRO red for proteins and observed under fluorescence microscopy.
To investigate the eliminating ability of peptide, EPS components were analyzed using fluorescence microplate and microscopic analyses. After following the processes described in Section 3.7, the biofilm was washed with SP buffer and stained using four fluorescent dyes (DAPI for nucleic acids, Nile red for lipids, FITC-ConA for carbohydrates, and SYPRO red for proteins).

[13] = Pseudomonas aeruginosa, ATCC27853

Compound	MIC [5]	MIC [6]	further results
CC(C)(O/N=C(\C(=O)N[C@@H]1C(=O)N2C(C(=O)[O-])=C(C[n+]3ccccc3)CS[C@H]12)c1csc(N)n1)C(=O)O [Ceftazidime]			MIC [1, 13]: 1 µM; antibacterial activity against planktonic cells [2]: remarkably inhibited; growth inhibition of planktonic cells [3]: at very low concentrations
O=C(O)c1cn(C2CC2)c2cc(N3CCNCC3)c(F)cc2c1=O [Ciprofloxacin]			MIC ([4]; Pseudomonas aeruginosa): > 256 µM; MIC ([5]; Pseudomonas aeruginosa): > 256 µM; MIC ([6]; Pseudomonas aeruginosa): 64 µM; MIC ([7]; Pseudomonas aeruginosa): > 256 µM; MIC ([8]; Pseudomonas aeruginosa): > 256 µM; MIC [1, 13]: 1 µM; antibacterial activity against planktonic cells [2]: remarkably inhibited; growth inhibition of planktonic cells [3]: at very low concentrations; inhibition of biofilm formation [9]: dose-dependent manner; inhibition at 64 µM [10]: 2.3%; biofilm and bacteria on coverslip under SEM [11]: massive volume
CC[C@H](C)[C@H](NC(=O)CN)C(=O)NCC(=O)N[C@@H](C)C(=O)N[C@H](C(=O)N[C@@H](CC(C)C)C(=O)N[C@@H](CCCCN)C(=O)N[C@H](C(=O)N[C@@H](CC(C)C)C(=O)N[C@H](C(=O)N[C@H](C(=O)NCC(=O)N[C@@H](CC(C)C)C(=O)N1CCC[C@H]1C(=O)N[C@@H](C)C(=O)N[C@@H](CC(C)C)C(=O)N[C@H](C(=O)N[C@@H](CO)C(=O)N[C@@H](Cc1c[nH]c2ccccc12)C(=O)N[C@H](C(=O)N[C@@H](CCCCN)C(=O)N[C@@H](CCCNC(=N)N)C(=O)N[C@@H](CCCCN)C(=O)N[C@@H](CCCNC(=N)N)C(=O)N[C@@H](CCC(N)=O)C(=O)N[C@@H](CCC(N)=O)C(N)=O)[C@@H](C)CC)[C@@H](C)CC)[C@@H](C)O)[C@@H](C)O)C(C)C)C(C)C [Melittin]	4 µM	4 µM	MIC [4]: 2 µM; MIC [7]: 4 µM; MIC [8]: 4 µM; MIC [1]: 2 µM; removal of EPS components (carbohydrates, lipids, DNA, proteins) [12]: did not remove carbohydrates
NC[C@H]1O[C@H](O[C@H]2[C@H](O)[C@@H](O[C@H]3O[C@H](CO)[C@@H](O)[C@H](N)[C@H]3O)[C@H](N)C[C@@H]2N)[C@H](N)C[C@@H]1O [Tobramycin]			MIC [1, 13]: 0.25 µM
Cc1onc(-c2ccccc2)c1C(=O)N[C@@H]1C(=O)N2[C@@H]1SC(C)(C)[C@@H]2C(=O)O [oxacillin]			inhibition of biofilm formation [9]: dose-dependent manner; inhibition at 64 µM [10]: 3.4%
KKIIKKIIKKIWKW-NH2 [KIW-14]	2 µM	2 µM	
KKIIKKIWKW-NH2 [KIW-10]	16 µM	16 µM	
KKIWKKWIKI-NH2 [KWI-10]	8 µM	8 µM	
KKIWKKWIKKIIKI-NH2 [KWI-14]	1 µM	2 µM	
RRIIRRIWRW-NH2 [RIW-10]	8 µM	16 µM	
RRIWRRWIRI-NH2 [RWI-10]	8 µM	4 µM	
WIKKIWKKIIKEIK-NH2 [WIKE-14]	8 µM	8 µM	
WIKKIWKKIIKKIK-NH2 [WIK-14]	1 µM	2 µM	
WIKKIWKKIK-NH2 [WIK-10]	8 µM	8 µM	
WIRRIWRRIR-NH2 [WIR-10]	2 µM	4 µM	
